Reference: the NIST ThermoML archive (doi:10.1016/j.tca.2007.04.012)

Tests used:
[1] = 298.15 K; 101.33 kPa; Liquid; Vibrating tube method
[2] = xn = mol fraction of the nth substance listed; settings: 298.15 K, 101 kPa, Liquid, Vibrating tube method
[3] = excess molar enthalpy (molar enthalpy of mixing); xn = mol fraction of the nth substance listed; settings: 298.15 K, 101 kPa, Liquid, Flow calorimetry

CCCO [propan-1-ol]
Settings	mass density [kg/m3]
[1]	799.3

CO [methanol]
Settings	mass density [kg/m3]
[1]	786.3

OCC(F)(F)F [2,2,2-trifluoroethanol] + CO
Settings	excess molar enthalpy [kcal/mol]	mass density [kg/m3]
[2], x1 = 0.00435	–	790.62
[2], x1 = 0.00909	–	795.28
[2], x1 = 0.01555	–	801.57
[2], x1 = 0.01643	–	802.43
[2], x1 = 0.06693	–	849.62
[2], x1 = 0.1862	–	949.42
[2], x1 = 0.3191	–	1045.13
[2], x1 = 0.385	–	1087.8
[2], x1 = 0.4808	–	1144.91
[2], x1 = 0.5797	–	1198.76
[2], x1 = 0.6905	–	1253.74
[2], x1 = 0.8331	–	1317.38
[2], x1 = 0.9196	–	1352.57
[2], x1 = 0.9701	–	1372.13
[2], x1 = 0.9799	–	1375.89
[2], x1 = 0.9913	–	1380.01
[2], x1 = 0.9949	–	1381.47
[2], x1 = 1	–	1383.41
[3], x1 = 0.00548	-0.00519	–
[3], x1 = 0.01037	-0.00949	–
[3], x1 = 0.02045	-0.0191	–
[3], x1 = 0.02995	-0.0283	–
[3], x1 = 0.04012	-0.0376	–
[3], x1 = 0.04831	-0.0459	–
[3], x1 = 0.09938	-0.08521	–
[3], x1 = 0.1996	-0.1461	–
[3], x1 = 0.297	-0.1827	–
[3], x1 = 0.3988	-0.2023	–
[3], x1 = 0.4971	-0.2035	–
[3], x1 = 0.6027	-0.194	–
[3], x1 = 0.7098	-0.1616	–
[3], x1 = 0.8044	-0.1209	–
[3], x1 = 0.8929	-0.0647	–
[3], x1 = 0.9016	-0.0587	–
[3], x1 = 0.9113	-0.0538	–
[3], x1 = 0.9251	-0.0452	–
[3], x1 = 0.9337	-0.0388	–
[3], x1 = 0.9463	-0.0319	–
[3], x1 = 0.9602	-0.0246	–
[3], x1 = 0.9707	-0.0169	–
[3], x1 = 0.9838	-0.00875	–
[3], x1 = 0.9953	-0.0028	–
[3], x1 = 0.9987	-0.000645	–

CCCO [propan-1-ol] + OCC(F)(F)F
Settings	mass density [kg/m3]
[2], x2 = 0	799.3

OCC(F)(F)F [2,2,2-trifluoroethanol] + CCCO
Settings	excess molar enthalpy [kcal/mol]	mass density [kg/m3]
[2], x1 = 0.00607	–	802.48
[2], x1 = 0.01063	–	804.92
[2], x1 = 0.02216	–	810.94
[2], x1 = 0.03141	–	815.81
[2], x1 = 0.1032	–	853.69
[2], x1 = 0.2022	–	906.48
[2], x1 = 0.3118	–	965.59
[2], x1 = 0.408	–	1018.5
[2], x1 = 0.5085	–	1075.13
[2], x1 = 0.6057	–	1131.49
[2], x1 = 0.7074	–	1192.38
[2], x1 = 0.8029	–	1251.85
[2], x1 = 0.9023	–	1316.56
[2], x1 = 0.9671	–	1360.54
[2], x1 = 0.9785	–	1368.42
[2], x1 = 0.9898	–	1376.24
[2], x1 = 0.9948	–	1379.83
[2], x1 = 1	–	1383.41
[3], x1 = 0.0054	-0.00299	–
[3], x1 = 0.0092	-0.00578	–
[3], x1 = 0.02045	-0.0111	–
[3], x1 = 0.03258	-0.0163	–
[3], x1 = 0.04077	-0.0215	–
[3], x1 = 0.051	-0.026	–
[3], x1 = 0.1013	-0.0439	–
[3], x1 = 0.2013	-0.0642	–
[3], x1 = 0.3023	-0.0721	–
[3], x1 = 0.4041	-0.073	–
[3], x1 = 0.4962	-0.0645	–
[3], x1 = 0.5974	-0.0539	–
[3], x1 = 0.6998	-0.0417	–
[3], x1 = 0.7987	-0.0275	–
[3], x1 = 0.9003	-0.0137	–
[3], x1 = 0.9108	-0.0123	–
[3], x1 = 0.9211	-0.011	–
[3], x1 = 0.9333	-0.00978	–
[3], x1 = 0.9409	-0.00832	–
[3], x1 = 0.9486	-0.00703	–
[3], x1 = 0.9577	-0.00578	–
[3], x1 = 0.9694	-0.00409	–
[3], x1 = 0.9839	-0.00258	–
[3], x1 = 0.9916	-0.00108	–
[3], x1 = 0.9961	-0.000406	–

OCC(F)(F)F [2,2,2-trifluoroethanol] + O
Settings	excess molar enthalpy [kcal/mol]	mass density [kg/m3]
[2], x1 = 0.00478	–	1005.99
[2], x1 = 0.01029	–	1016.28
[2], x1 = 0.01855	–	1031.19
[2], x1 = 0.02226	–	1037.71
[2], x1 = 0.1002	–	1139.98
[2], x1 = 0.1985	–	1215.51
[2], x1 = 0.3	–	1265.59
[2], x1 = 0.3983	–	1298.93
[2], x1 = 0.4965	–	1322.87
[2], x1 = 0.5995	–	1341.54
[2], x1 = 0.7303	–	1359.16
[2], x1 = 0.839	–	1370.38
[2], x1 = 0.9062	–	1376.17
[2], x1 = 0.9696	–	1381.16
[2], x1 = 0.98	–	1381.89
[2], x1 = 0.9899	–	1382.59
[2], x1 = 0.995	–	1382.97
[2], x1 = 1	–	1383.41
[3], x1 = 0.00546	-0.00688	–
[3], x1 = 0.01088	-0.013	–
[3], x1 = 0.02028	-0.0219	–
[3], x1 = 0.0306	-0.0252	–
[3], x1 = 0.04018	-0.0246	–
[3], x1 = 0.04984	-0.0225	–
[3], x1 = 0.05985	-0.0196	–
[3], x1 = 0.07002	-0.0159	–
[3], x1 = 0.07952	-0.0122	–
[3], x1 = 0.08986	-0.00791	–
[3], x1 = 0.09937	-0.00335	–
[3], x1 = 0.11	0.000789	–
[3], x1 = 0.1193	0.00528	–
[3], x1 = 0.1299	0.0097	–
[3], x1 = 0.1385	0.0143	–
[3], x1 = 0.1486	0.0192	–
[3], x1 = 0.1983	0.0424	–
[3], x1 = 0.2988	0.08652	–
[3], x1 = 0.3988	0.123	–
[3], x1 = 0.4955	0.1497	–
[3], x1 = 0.5989	0.1661	–
[3], x1 = 0.7078	0.1649	–
[3], x1 = 0.8079	0.1296	–
[3], x1 = 0.898	0.073	–
[3], x1 = 0.9054	0.0679	–
[3], x1 = 0.9202	0.0573	–
[3], x1 = 0.9301	0.0499	–
[3], x1 = 0.9387	0.0447	–
[3], x1 = 0.9528	0.0344	–
[3], x1 = 0.9646	0.0249	–
[3], x1 = 0.9732	0.0189	–
[3], x1 = 0.988	0.00963	–
[3], x1 = 0.9952	0.00335	–

OCC(F)(F)F [2,2,2-trifluoroethanol] + CCO
Settings	excess molar enthalpy [kcal/mol]	mass density [kg/m3]
[2], x1 = 0.00449	–	788
[2], x1 = 0.00898	–	791.1
[2], x1 = 0.02012	–	798.87
[2], x1 = 0.02992	–	805.61
[2], x1 = 0.04022	–	812.7
[2], x1 = 0.05208	–	820.82
[2], x1 = 0.1002	–	853.17
[2], x1 = 0.2003	–	918.54
[2], x1 = 0.3001	–	981.36
[2], x1 = 0.3999	–	1042.13
[2], x1 = 0.5003	–	1101.6
[2], x1 = 0.6012	–	1160.07
[2], x1 = 0.7025	–	1217.72
[2], x1 = 0.7851	–	1264.15
[2], x1 = 0.9109	–	1334.11
[2], x1 = 0.92	–	1339.16
[2], x1 = 0.9299	–	1344.65
[2], x1 = 0.9497	–	1355.58
[2], x1 = 0.9597	–	1361.14
[2], x1 = 0.9697	–	1366.65
[2], x1 = 0.9798	–	1372.26
[2], x1 = 0.9897	–	1377.67
[2], x1 = 1	–	1383.41
[3], x1 = 0.00586	-0.00471	–
[3], x1 = 0.0106	-0.00946	–
[3], x1 = 0.02013	-0.0193	–
[3], x1 = 0.03032	-0.0283	–
[3], x1 = 0.03992	-0.0369	–
[3], x1 = 0.04851	-0.0448	–
[3], x1 = 0.06244	-0.0517	–
[3], x1 = 0.07146	-0.0594	–
[3], x1 = 0.08127	-0.0666	–
[3], x1 = 0.09052	-0.0739	–
[3], x1 = 0.09891	-0.0797	–
[3], x1 = 0.199	-0.1256	–
[3], x1 = 0.2992	-0.1503	–
[3], x1 = 0.3995	-0.1603	–
[3], x1 = 0.5039	-0.157	–
[3], x1 = 0.6029	-0.1387	–
[3], x1 = 0.7014	-0.1179	–
[3], x1 = 0.7964	-0.08435	–
[3], x1 = 0.8945	-0.0468	–
[3], x1 = 0.9072	-0.0426	–
[3], x1 = 0.916	-0.0381	–
[3], x1 = 0.9278	-0.0345	–
[3], x1 = 0.9389	-0.0293	–
[3], x1 = 0.9516	-0.024	–
[3], x1 = 0.9618	-0.0199	–
[3], x1 = 0.9729	-0.0139	–
[3], x1 = 0.9826	-0.00901	–
[3], x1 = 0.992	-0.00356	–
[3], x1 = 0.9988	-0.000908	–

OCC(F)(F)F [2,2,2-trifluoroethanol]
Settings	mass density [kg/m3]
[1]	1383.41

CCO [ethanol]
Settings	mass density [kg/m3]
[1]	784.83

CCO [ethanol] + OCC(F)(F)F
Settings	mass density [kg/m3]
[2], x2 = 0	784.83

CO [methanol] + OCC(F)(F)F
Settings	mass density [kg/m3]
[2], x2 = 0	786.3
